Experimental data published in patent US20150105281A1, “Method for the Selection of Serum Biomarkers of Epigenetic Alterations, Particularly of Global Hypomethylation and Their Uses” (Universite Paris Descartes, priority 2012, published 2015).
pIC50: −log10 of the molar value.

How the values were obtained:
Type in all cases: cell-based, human
A549 = assay: Cell viability (WST-1) with 5-aza-dC at increasing doses
Source text: (§1) To further determine the impact of global demethylation on the expression of hCGβ type II and pro-EPIL, we used 5-aza-2′ deoxycytidine (5-aza-dC), a strong inducer of DNA de-methylation and measured the levels of hCGβ type II and pro-EPIL in the supernatants of 10 cancer cell lines of various histological origin, treated at two different doses of 5-aza-dC. On the curve of viability of each cell line treated with 5-aza-dC at increasing doses, the two selected doses that have been selected for studying the effect of global hypomethylation by 5-aza-dC on the production of hCGβ type II and pro-EPIL were the doses corresponding to the 5-aza-dC concentrations at the inflexion point and at the 50% inhibition of cell viability (Inhibition growth Concentration 50% or IC 50), respectively (FIG. 3 and Table 2).
(§2) Briefly, 10,000 cells were plated in 96-well plates in 100 μl medium. After one day, dilution range of 5-aza-dC from 1,000 μM to 0.06 μM were added. After 96 h incubation time, 10 μl of WST-1 were added and optical density (O.D) were measured at 450 nm (FIG. 3 and Table 2).

BC173 = assay: as above; conditions: 96 h
Source text: as §1, §2

CLRB018P = assay: as above; conditions: 96 h
Source text: as §1, §2

HT1376 = assay: as above
Source text: as §1, §2

JAR = assay: as above; conditions: 96 h
Source text: as §1, §2

JEG = assay: as above; conditions: 96 h
Source text: as §1, §2

LCF09 = assay: as above; conditions: 96 h
Source text: as §1, §2

OBR = assay: as above; conditions: 96 h
Source text: as §1, §2

SHP77 = assay: as above
Source text: as §1, §2

TC320X6 = assay: as above; conditions: 96 h
Source text: as §1, §2

pro-EPIL = assay: Pro-EPIL in supernatants of cancer cell lines after induction of DNA demethylation (ELISA); conditions: 10 cancer cell lines, 72 h at dose A or dose B, supernatant, vs cells not exposed (FIG. 4A)
Source text: as §1
(§3) Experiments were performed as previously described. Briefly, in 75 cm^2 size cell culture flaks, cell lines were grew up to more than 50% confluence before treating them for 72 h with 5-aza-dC at either the doses A corresponding at the Inflection Points, or the doses B corresponding to IC50. […] After trypsinisation, cells were counted in malassez chamber using trypan blue. […] Then, the pro-EPIL and hCG B type II concentrations were determined by an ELISA immunoassay and an automated KRYPTOR immunoassay, respectively (Table 2, FIG. 4A, FIG. 4B).

hCGβ type II = hCGβ type II in supernatants of cancer cell lines after induction of DNA demethylation (KRYPTOR immunoassay); conditions: 10 cancer cell lines, 72 h at dose A or dose B, supernatant, vs cells not exposed (FIG. 4B)
Source text: as §1, §3

[1] = Homo sapiens, read-out: Dose B (5-aza-dC concentration at the 50% inhibition of cell viability, IC 50)

Nc1ncn([C@H]2C[C@H](O)[C@@H](CO)O2)c(=O)n1 [5-aza-dC, 5-aza-2′ deoxycytidine]
Dose A (5-aza-dC concentration at the inflexion point of the viability curve) (A549; A549, lung, 96 h, WST-1): 12.5 µM | pIC50 (A549; Homo sapiens, A549, 96 h, read-out: Dose B (5-aza-dC concentration at the 50% inhibition of cell viability, IC 50)): 4.30 | Dose A (5-aza-dC concentration at the inflexion point of the viability curve) (BC173; BC173, breast, WST-1): 1.95 µM | pIC50 (BC173; [1]): 3.93 | Dose A (5-aza-dC concentration at the inflexion point of the viability curve) (CLRB018P; CLRB018P, colon, WST-1): 15.6 µM | pIC50 (CLRB018P; [1]): 3.73 | Dose A (5-aza-dC concentration at the inflexion point of the viability curve) (HT1376; HT1376, bladder, 96 h, WST-1): 1.6 µM | pIC50 (HT1376; Homo sapiens, HT-1376, 96 h, read-out: Dose B (5-aza-dC concentration at the 50% inhibition of cell viability, IC 50)): 5.20 | pIC50 (JAR; [1]): 4.75 | Dose A (5-aza-dC concentration at the inflexion point of the viability curve) (JAR; JAR, placenta, WST-1): 2 µM | pIC50 (JEG; [1]): 5.30 | Dose A (5-aza-dC concentration at the inflexion point of the viability curve) (JEG; JEG, placenta, WST-1): 2.6 µM | pIC50 (LCF09; [1]): 4.60 | Dose A (5-aza-dC concentration at the inflexion point of the viability curve) (LCF09; LCF09, lung, WST-1): 5 µM | pIC50 (OBR; [1]): 4.70 | Dose A (5-aza-dC concentration at the inflexion point of the viability curve) (OBR; OBR, bladder, WST-1): 6.5 µM | pIC50 (SHP77; Homo sapiens, SHP77, 96 h, read-out: Dose B (5-aza-dC concentration at the 50% inhibition of cell viability, IC 50)): 4.56 | Dose A (5-aza-dC concentration at the inflexion point of the viability curve) (SHP77; SHP77, lung, 96 h, WST-1): 8 µM | pIC50 (TC320X6; [1]): 4.11 | Dose A (5-aza-dC concentration at the inflexion point of the viability curve) (TC320X6; TC320X6, colon, WST-1): 4 µM | Effect on the production of pro-EPIL (pro-EPIL): induced consistently an increase | Cell lines with an increase in the production of hCGβ type II (hCGβ type II): 7 out of 10
